Assay results as given in PubChem BioAssay AID1259407 (Chemical Carcinogenesis Research Information System (CCRIS), 2018).
Active and inactive are the calls of the source. No rule for the calls is given here.

Tested on: CCRIS mutagenicity, Ames/micronucleus/aberration tests
Assay: CCRIS mutagenicity studies
[1] = Test System: AMES SALMONELLA TYPHIMURIUM, Strain/Indicator: TA98, Metabolic Activation: NONE, Method: STANDARD PLATE
[2] = Test System: AMES SALMONELLA TYPHIMURIUM, Strain/Indicator: TA100, Metabolic Activation: NONE, Method: STANDARD PLATE

For `c1ccc2c(c1)c1cccc3ccc4cccc2c4c31`, the mutagenic call (End Point: IN VITRO MICRONUCLEUS, Test System: CHINESE HAMSTER V79 CELLS, Metabolic Activation: S-9) was “active; positive”, the mutagenic call (Test System: AMES SALMONELLA TYPHIMURIUM, Strain/Indicator: TA97, Metabolic Activation: NONE, Method: STANDARD PLATE) was “inactive; negative” and the mutagenic call (Test System: AMES SALMONELLA TYPHIMURIUM, Strain/Indicator: TA97, Metabolic Activation: RAT, LIVER, S-9, PCB, Method: STANDARD PLATE) was “active; positive”. For the same molecule, the mutagenic call [1] was “inactive; negative”, the mutagenic call (Test System: AMES SALMONELLA TYPHIMURIUM, Strain/Indicator: TA98, Metabolic Activation: RAT, LIVER, S-9, AROCLOR 1254, Method: STANDARD PLATE) was “active; positive” and the mutagenic call (Test System: AMES SALMONELLA TYPHIMURIUM, Strain/Indicator: TA98, Metabolic Activation: RAT, LIVER, S-9, PCB, Method: STANDARD PLATE) was “active; positive”. For the same molecule, the mutagenic call (Test System: AMES SALMONELLA TYPHIMURIUM, Strain/Indicator: TA100, Metabolic Activation: MOUSE, LIVER, MICROSOMES, BENZO[E]PYRENE AND TCDD, Method: STANDARD PLATE) was “inactive; negative”, the mutagenic call [2] was “inactive; negative” and the mutagenic call (Test System: AMES SALMONELLA TYPHIMURIUM, Strain/Indicator: TA100, Metabolic Activation: RAT, LIVER, S-9, AROCLOR 1254, Method: STANDARD PLATE) was “active; positive”. For the same molecule, the mutagenic call (Test System: AMES SALMONELLA TYPHIMURIUM, Strain/Indicator: TA100, Metabolic Activation: RAT, LIVER, S-9, PCB, Method: STANDARD PLATE) was “active; positive”, the mutagenic call (Test System: E. COLI, Strain/Indicator: WP2 UVRA, Metabolic Activation: HAMSTER, LIVER, S-9, AROCLOR 1254, Method: STANDARD PLATE) was “inactive; negative” and the mutagenic call (Test System: E. COLI, Strain/Indicator: WP2 UVRA, Metabolic Activation: HAMSTER, LIVER, S-9, Method: STANDARD PLATE) was “inactive; negative”. The mutagenic call (Test System: E. COLI, Strain/Indicator: WP2 UVRA, Metabolic Activation: MOUSE, LIVER, S-9, AROCLOR 1254, Method: STANDARD PLATE) was “inactive; negative”, the mutagenic call (Test System: E. COLI, Strain/Indicator: WP2 UVRA, Metabolic Activation: MOUSE, LIVER, S-9, Method: STANDARD PLATE) was “inactive; negative” and the mutagenic call (Test System: E. COLI, Strain/Indicator: WP2 UVRA, Metabolic Activation: NONE, Method: STANDARD PLATE) was “inactive; negative”. For the same molecule, the mutagenic call (Test System: E. COLI, Strain/Indicator: WP2 UVRA, Metabolic Activation: RAT, LIVER, S-9, AROCLOR 1254, Method: STANDARD PLATE) was “inactive; negative”, the mutagenic call (Test System: E. COLI, Strain/Indicator: WP2 UVRA, Metabolic Activation: RAT, LIVER, S-9, Method: STANDARD PLATE) was “inactive; negative” and the mutagenic call (Test System: MOUSE LYMPHOMA, Strain/Indicator: L5178Y (TK+/TK-), Metabolic Activation: NONE, Method: SUSPENSION/PLATE) was “inactive; negative”. The mutagenic call (Test System: MOUSE LYMPHOMA, Strain/Indicator: L5178Y (TK+/TK-), Metabolic Activation: RAT, LIVER, S-9, AROCLOR 1254, Method: SUSPENSION/PLATE) was “active; positive”, the mutagenic call (Test System: MOUSE LYMPHOMA, Strain/Indicator: L5178Y (TK+/TK-), Metabolic Activation: RAT, LIVER, S-9, Method: SUSPENSION/PLATE) was “inactive; negative” and the mutagenic call (Test System: UDS HUMAN CELLS, Strain/Indicator: THY INCORP (NON-S-PHASE), Metabolic Activation: RAT, LIVER, S-9, 3-METHYLCHOLANTHRENE, Method: LIQUID SCINTILLATION COUNTING) was “active; positive”.
`CN1CCN(c2ccc3nc(CCCc4ccc5nc(-c6ccc(N(CCCl)CCCl)cc6)[nH]c5c4)[nH]c3c2)CC1` was tested, and the mutagenic call [1] was “inactive; negative”, the mutagenic call [2] was “inactive; negative” and the mutagenic call (Test System: AMES SALMONELLA TYPHIMURIUM, Strain/Indicator: TA102, Metabolic Activation: NONE, Method: STANDARD PLATE) was “active; positive”.
`CCCC(Cl)C(=O)S` (stereo not given) was tested, and the mutagenic call (Test System: AMES SALMONELLA TYPHIMURIUM, Strain/Indicator: TA1535, Metabolic Activation: NONE) was “active; positive”.
